# Key:
# [1] = system: MCF-7 breast cancer cell line; assay: MTT anti-proliferative assay, MCF-7; type: cell-based; details: Homo sapiens, MCF7, 48 h, mean ± S.E.M.
# Procedure: (§1) Toward this aim, the cells were treated with the synthesized compounds at different concentrations and were incubated for 48 h. In our evaluations, staurosporine (STU) was used as a reference drug. After the cells were washed, they were treated with MTT solution, and an ELISA reader assessed the absorption of the solution at a wavelength of 570 nm.
# (§2) Finally, the resulting MTT crystals were dissolved at ambient temperature in acidified isopropanol (180 µL/well) with shaking, and the absorption was assessed at 570 nm utilizing ELISA.
# [2] = system: MDA-MB-231 breast cancer cell line; assay: MTT anti-proliferative assay, MDA-MB-231; type: cell-based; details: mean ± S.E.M.
# Procedure: as §1, §2
# human VEGFR-2/KDR = human VEGFR-2/KDR (Homo sapiens, UniProt P35968); assay: VEGFR-2 inhibitory activity (VEGFR-2/KDR ELISA kit)
# Chain of human VEGFR-2/KDR (P35968 20-1356): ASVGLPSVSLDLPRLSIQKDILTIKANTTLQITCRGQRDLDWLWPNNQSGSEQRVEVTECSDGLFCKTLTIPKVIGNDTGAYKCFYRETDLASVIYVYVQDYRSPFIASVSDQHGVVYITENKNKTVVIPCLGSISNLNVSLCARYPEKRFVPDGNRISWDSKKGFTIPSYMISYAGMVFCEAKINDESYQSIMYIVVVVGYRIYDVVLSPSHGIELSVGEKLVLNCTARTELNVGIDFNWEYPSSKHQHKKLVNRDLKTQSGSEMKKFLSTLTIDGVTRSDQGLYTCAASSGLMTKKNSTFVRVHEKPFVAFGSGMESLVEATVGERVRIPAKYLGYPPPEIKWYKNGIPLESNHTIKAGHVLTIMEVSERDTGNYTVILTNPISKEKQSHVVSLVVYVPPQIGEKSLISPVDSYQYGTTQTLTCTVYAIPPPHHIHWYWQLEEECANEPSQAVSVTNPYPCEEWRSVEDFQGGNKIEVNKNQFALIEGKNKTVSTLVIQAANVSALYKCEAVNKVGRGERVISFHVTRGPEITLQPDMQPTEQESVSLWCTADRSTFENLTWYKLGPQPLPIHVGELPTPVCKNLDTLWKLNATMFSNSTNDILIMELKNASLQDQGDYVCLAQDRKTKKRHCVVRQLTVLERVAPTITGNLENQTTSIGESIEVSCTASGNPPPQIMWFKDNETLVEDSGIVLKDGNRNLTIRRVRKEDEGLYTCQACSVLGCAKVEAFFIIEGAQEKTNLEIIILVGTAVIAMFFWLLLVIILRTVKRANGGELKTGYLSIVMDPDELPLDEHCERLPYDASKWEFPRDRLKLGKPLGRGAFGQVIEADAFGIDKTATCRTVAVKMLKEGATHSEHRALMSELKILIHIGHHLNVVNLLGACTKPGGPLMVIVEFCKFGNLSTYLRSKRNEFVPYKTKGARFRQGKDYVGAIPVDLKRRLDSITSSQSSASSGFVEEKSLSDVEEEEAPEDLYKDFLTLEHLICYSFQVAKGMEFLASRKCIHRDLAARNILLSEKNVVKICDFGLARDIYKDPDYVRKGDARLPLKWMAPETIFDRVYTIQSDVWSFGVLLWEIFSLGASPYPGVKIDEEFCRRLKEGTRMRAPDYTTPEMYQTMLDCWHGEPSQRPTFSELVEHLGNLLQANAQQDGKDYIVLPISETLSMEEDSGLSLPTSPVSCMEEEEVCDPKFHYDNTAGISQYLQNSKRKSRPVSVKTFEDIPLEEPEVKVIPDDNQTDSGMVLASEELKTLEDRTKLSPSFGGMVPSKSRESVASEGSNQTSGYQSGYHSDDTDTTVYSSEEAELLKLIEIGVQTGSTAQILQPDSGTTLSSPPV
# Procedure: In our experiments, we used Sorafenib as a positive control drug reference. The activity of compounds was assessed at different concentrations, and the IC50 values were determined.
# [3] = system: epithelial breast cell line MCF-10A; assay: MTT cytotoxicity assay, epithelial breast cells MCF-10A; type: cell-based; details: Homo sapiens, 48 h, mean ± S.E.M.
# Procedure: as §1, §2
# MCF-7 cells [4] = assay: Cell cycle analysis by flow cytometry (propidium iodide); type: cell-based; details: MCF-7, 5.73 µM, 24 h
# Procedure: Based on the anti-proliferative activity results, we selected compound 4 to further explore and achieve insights into the mechanism responsible for the cytotoxicity of this class of compounds. Toward this aim, we assessed the effect of compound 4 on the cell cycle distribution of MCF-7 cells utilizing flow cytometry analysis. The cell cycle distribution analysis was evaluated after incubation of MCF-7 cells with compound 4 at 5.73 µM. […] Further, compound 4 induced a substantial diminution in the cellular population at the G2/M stage. As indicated in Figure 5a–c, the cellular populations of the G2/M and pre-G1 phases in the control cells were 16.99% and 2.12%, respectively, while the populations were altered to 6.81% and 31.66%, respectively, in the presence of compound 4 at 5.73 µM.
# To assess the effect of compound 4 on the cell cycle of MCF-7 cells, we treated the MCF-7 cells with compound 4 and analyzed the cell cycle arrest at different stages as previously reported. […] After the cells were incubated with propidium iodide (5 mg/mL, Sigma, Ronkonkoma, NY, USA) and Rnase (10 mg/mL, Sigma, Ronkonkoma, NY, USA), cytofluorometry analysis was performed using FACS Calibur cytometer, and the results were analyzed utilizing Cell quest software (BD Bioscience, San Jose, CA, USA).
# MCF-7 cells [5] = assay: Annexin V-FITC/PI dual staining (apoptosis and necrosis); type: cell-based; details: MCF-7, 5.73 µM, 24 h
# Procedure: Our findings encouraged us to further explore the mechanistic insights accounting for the potent cytotoxicity and cell cycle arrest. To investigate whether the mode of action for the antiproliferative activity of compound 4 toward MCF-7 cells involves apoptosis and/or necrosis, we performed Annexin V- FITC/PI dual staining assay. To this end, we treated MCF-7 cells with compound 4 (5.73 µM) for 24h and assessed the programmed cell death at different stages utilizing the cytofluorometry analysis. […] Indeed, treatment with compound 4 increased apoptosis by 9 and 89 times at the early and late stages, respectively, compared to control cells.
# To explore the effect of compound 4 on the programmed cell death mechanisms of MCF-7 cells, fluorescent Annexin V-FITC/ PI assay was performed using flow cytometry following a previously reported procedure. Briefly, MCF-7 cells (2 × 10^5) were treated with compound 4 at 5.73 µM concentration. After incubation for 24 h, the harvested cells were stained in the dark at 37 °C with Annexin V-FITC/ PI dye for 15 min. Cytofluorometry analysis was assessed by BD FACS Calibur (Becton and Dickinson, Heidelberg, Germany), and the BD cell Quest pro software was utilized to analyze the results.
IC50 [1],"IC50 ([2]; Homo sapiens, MDA-MB-231, 48 h)",melting point,Structure (SMILES),other results
24.9 ± 1.9 µM,18.7 ± 1.42 µM,–,"Oc1ccc(/C=N/Nc2nc(-c3ccc(Cl)cc3)cs2)cc1 [Compound 3a, (E)-4-((2-(4-(4-Chlorophenyl)thiazol-2-yl)hydrazineylidene)methyl)-phenol]",–
31.2 ± 2.38 µM,36.8 ± 2.81 µM,185 °C,"C/C(=N\Nc1nc(-c2ccc(Cl)cc2)cs1)c1ccc(Br)cc1 [Compound 3b, (E)-2-(2-(1-(4-bromophenyl)ethylidene)hydrazineyl)-4-(4-chlorophenyl)thiazole]",–
13.7 ± 1.04 µM,17.1 µM,–,"C/C(=N\Nc1nc(-c2ccc(Br)cc2)cs1)c1ccccc1O [Compound 3c, (E)-2-(1-(2-(4-(4-Bromophenyl)thiazol-2-yl)hydrazineylidene)ethyl)-phenol]",IC50 ([2]; 48 h): 17.08 ± 0.13 µM; IC50 (human VEGFR-2/KDR): 253 ± 540 nM
5.73 ± 0.44 µM,12.2 ± 0.93 µM,–,"CC(=O)Nc1nc(-c2ccc(Cl)cc2)cs1 [Compound 4, N-(4-(4-Chlorophenyl)-Thiazol-2-yl)Acetamide]",IC50 [3]: 36.8 ± 5 µM; cellular population in pre-G1 phase (MCF-7 cells [4]; control 2.12%): 31.66%; cellular population in G2/M phase (MCF-7 cells [4]; control 16.99%): 6.81%; increase of apoptosis at the early stage compared to control cells (MCF-7 cells [5]): 9 times; increase of apoptosis at the late stage compared to control cells (MCF-7 cells [5]): 89 times; increase of necrosis compared to control cells (MCF-7 cells [5]): 9 times; necrosis percentage (MCF-7 cells [5]; control 1.26%): 11.77%
18.6 ± 1.42 µM,20.7 ± 1.58 µM,155 to 157 °C,"C/C(=N\N(c1nc(-c2ccc(Cl)cc2)cs1)C(O)c1ccc(O)cc1)c1ccc(Br)cc1 (stereo not drawn) [Compound 5a, (E)-4-((2-(1-(4-Bromophenyl)ethylidene)-1-(4-(4-chlorophenyl)thiazol-2-yl)hydrazineyl)(hydroxy)methyl)phenol]",–
32.5 ± 2.47 µM,62.12 ± 0.47 µM,158 to 160 °C,"COc1cc(C(O)N(/N=C(\C)c2ccc(Br)cc2)c2nc(-c3ccc(Cl)cc3)cs2)ccc1O (stereo not drawn) [Compound 5b, (E)-4-((2-(1-(4-Bromophenyl)ethylidene)-1-(4-(4-chlorophenyl)thiazol-2-yl)hydrazineyl)(hydroxy)methyl)-2-methoxyphenol]",–

Structure (SMILES),IC50 [1],"IC50 ([2]; Homo sapiens, MDA-MB-231, 48 h)",melting point,other results
"CC(=O)Oc1ccc(C(OC(C)=O)N(/N=C(\C)c2ccc(Br)cc2)c2nc(-c3ccc(Cl)cc3)cs2)cc1 (stereo not drawn) [Compound 6a, (E)-4-(Acetoxy(2-(1-(4-bromophenyl)ethylidene)-1-(4-(4-chlorophenyl)thiazol-2-yl)hydrazineyl)methyl)phenyl acetate]",> 100 µM,> 100 µM,126 to 128 °C,–
"COc1cc(C(OC(C)=O)N(/N=C(\C)c2ccc(Br)cc2)c2nc(-c3ccc(Cl)cc3)cs2)ccc1OC(C)=O (stereo not drawn) [Compound 6b, (E)-4-(Acetoxy(2-(1-(4-bromophenyl)ethylidene)-1-(4-(4-chlorophenyl)thiazol-2-yl)hydrazineyl)methyl)-2-methoxyphenyl acetate]",43.8 ± 2.04 µM,77 ± 1.95 µM,126 to 128 °C,–

# From paper PMC9370021, “Novel 1,3-Thiazole Analogues with Potent Activity against Breast Cancer: A Design, Synthesis, In Vitro, and In Silico Study” (Molecules, 2022)
